Results from article PMC5047689 (Disease Models & Mechanisms, 2016).
Each block holds one molecule with its values, some of them ahead of it.

Tests used:
[1] = biological target: ALK kinase domain mutants; experiment: In vitro kinase assay, summary over ALK kinase domain mutants; assay type: biochemical, human; conditions: including ALK^G1269A, read-out: inhibitor level for 50% reduction in activity, all kinase domain mutations tested
[2] = test system: CLB-GE cells; experiment: Resazurin cell proliferation assay, neuroblastoma cell line; assay type: cell-based; conditions: Homo sapiens, 120 h, read-out: IC50, inhibition of proliferation
Protocol: Fig. 1. […] Treatment of neuroblastoma cells with the ALK TKIs crizotinib and PF-06463922. (A,B) Proliferation was assessed over 5 days using the resazurin cell proliferation assay in the following neuroblastoma cell lines: CLB-BAR, CLB-GE, CLB-PE, SK-N-AS and IMR32. Neuroblastoma cell line characteristics: CLB-GE – MYCN amplified, 1p deletion, 17q gain, amplified ALK amplicon containing an ALK^F1174V mutation; CLB-BAR – amplified MYCN/ALK, Δexon 4-11, 1p deletion, 17q gain; IMR32 – MYCN, wt sequence but exons 2-4 are amplified, 1p deletion, 17q gain; CLB-PE – 1p gain, amplified MYCN, 17q gain; SK-N-AS – IGF-1 overexpressing, 1p deletion, 1q gain, 17q gain, 17 deletion. […] Cells were harvested and pre-cleared cell lysates were analyzed on SDS PAGE followed by western blotting for ALK, phospho-ALK-Y1278, phospho-ERK5, pan-ERK5 phospho-ERK1/2 and pan-ERK. Actin was employed as a loading control. Protein band intensities were quantified by Image Studio Lite 3.1 and normalized to untreated samples.
The neuroblastoma CLB cell lines were from Valerie Combaret (Centre Leon Berard, France) under material transfer agreement and all cell lines were authenticated during the investigation with Affymetrix Cytoscan High Density array and compared with earlier cytoscans ([Schleiermacher et al., 2003]). […]

[3] = test system: CLB-BAR cells; experiment: as above; assay type: cell-based; conditions: Homo sapiens, 120 h, read-out: IC50, inhibition of proliferation
Protocol: (§1) Fig. 1. […] (A,B) Proliferation was assessed over 5 days using the resazurin cell proliferation assay in the following neuroblastoma cell lines: CLB-BAR, CLB-GE, CLB-PE, SK-N-AS and IMR32. Neuroblastoma cell line characteristics: CLB-GE – MYCN amplified, 1p deletion, 17q gain, amplified ALK amplicon containing an ALK^F1174V mutation; CLB-BAR – amplified MYCN/ALK, Δexon 4-11, 1p deletion, 17q gain; IMR32 – MYCN, wt sequence but exons 2-4 are amplified, 1p deletion, 17q gain; CLB-PE – 1p gain, amplified MYCN, 17q gain; SK-N-AS – IGF-1 overexpressing, 1p deletion, 1q gain, 17q gain, 17 deletion. […] Cells were harvested and pre-cleared cell lysates were analyzed on SDS PAGE followed by western blotting for ALK, phospho-ALK-Y1278, phospho-ERK5, pan-ERK5 phospho-ERK1/2 and pan-ERK. Actin was employed as a loading control. Protein band intensities were quantified by Image Studio Lite 3.1 and normalized to untreated samples.
(§2) CLB-BAR, CLB-GE, CLB-PE, SK-N-AS and IMR32 neuroblastoma cells (0.25×10^6) were plated on collagen-coated 48-well plates.

[4] = parameters: method as in Johnson et al., 2014; Zou et al., 2015; conditions: ref Johnson et al., 2014, Zou et al., 2015, cited from earlier work
[5] = test system: IMR32 cells; experiment: Resazurin cell proliferation assay, neuroblastoma cell line; assay type: cell-based, human
Protocol: as §1, §2

[6] = test system: SK-N-AS cells; experiment: as above; assay type: cell-based, human
Protocol: as §1, §2

[7] = test system: CLB-PE cells; experiment: as above; assay type: cell-based, human
Protocol: as §1, §2

[8] = test system: CLB-GE subcutaneous xenograft; experiment: Subcutaneous CLB-GE (ALK^F1174V) xenograft in nude mice; assay type: in vivo, mouse
Protocol: Fig. 5. […] 4.5×10^6 CLB-GE cells were injected into left shoulder subcutaneously. (A) Tumor growth curves represent the average volume of vehicle group and PF-06463922-treated group, P≤0.05 (n=5 for each group). […] (C) Average body weight on the day of sacrifice is shown, P>0.05. (D) Immunoblotting analysis of indicated proteins from tumors collected after 8 days of treatment with vehicle or PF-0646399 and relapsed tumors. Tumor lysates were harvested, pre-cleared and analyzed by western blotting for ALK, phospho-ALK-Y1278, MYCN, phospho-ERK1/2 and phospho-AKT. Pan-ERK and pan-Akt were employed as loading controls. (E) Immunohistochemical staining of tumors for […] as a measure of proliferation rate as indicated. […] Data in all graphs presented as mean±s.d.
Mice were grouped by tumor volume randomly. […] Immunohistochemistry was as described ([Yamazaki et al., 2014]). […] (n=15).

[9] = test system: ALK (phospho-ALK-Y1278) and downstream signaling; experiment: Immunoblotting of ALK signaling in CLB-BAR and CLB-GE neuroblastoma cells; assay type: cell-based, human; conditions: 6 h treatment, western blot
Protocol: as §1, §2

[10] = test system: EML4-ALK-driven brain metastases; parameters: method as in Zou et al., 2015; conditions: mouse; effect reversible upon withdrawal; ref Zou et al., 2015; cited from earlier work
[11] = 10 mg/kg twice per day, oral gavage, 7 days
[12] = 10 mg/kg twice per day, tumor lysates, western blot

SMILES: C[C@H]1Oc2cc(cnc2N)-c2c(nn(C)c2C#N)CN(C)C(=O)c2ccc(F)cc21 [PF-06463922, (10R)-7-amino-12-fluoro-2,10,16-trimethyl-15-oxo-10,15,16,17-tetrahydro-2H-8,4-(metheno)pyrazolo[4,3-h][2,5,11]-benzoxadiazacyclotetradecine-3-carbonitrile]
IC50 [1]: < 6.5 nM | IC50 [2]: 25 ± 2 nM | IC50 [3]: 16 ± 2 nM | half-life ([4]; preclinical animal model): 2.7 h | central nervous system penetration [4]: ability to penetrate the central nervous system | decrease in proliferation at high doses ([5]; high doses (500 nM)): not observed | inhibition of proliferation ([5]; increasing doses, 5 days): did not observe inhibition of proliferation | decrease in proliferation at high doses ([6]; high doses (500 nM)): not observed | inhibition of proliferation ([6]; increasing doses, 5 days): did not observe inhibition of proliferation | decrease in proliferation at high doses ([7]; high doses (500 nM)): not observed | inhibition of proliferation ([7]; increasing doses, 5 days): did not observe inhibition of proliferation | Ki-67 staining of tumors ([8]; 10 mg/kg twice per day, immunohistochemistry): reduced staining of the proliferation marker Ki-67 | body weight during treatment [8, 11]: no observed loss of body weight | tumor size during treatment [8, 11]: no increase of tumor size during treatment | MYCN expression in tumors [8, 12]: reduced expression of MYCN | phosphorylated ALK, ERK1/2 and PKB/Akt in tumors [8, 12]: Inhibition of phosphorylated ALK, ERK1/2 and PKB/Akt was observed | tumor re-growth after cessation of therapy ([8]; after 7 days of 10 mg/kg twice per day, treatment discontinued): Tumor re-growth was observed 7 days after cessation of therapy | ALK Y1278 phosphorylation [9]: loss of tyrosine 1278 (Y1278) phosphorylation on ALK | downstream signaling, pERK1/2 and pERK5 [9]: inhibition of downstream signaling | tumor volume and survival [10]: regression of tumor volume and prolonged mouse survival

IC50 [2]: 240 ± 27 nM
SMILES: C[C@@H](Oc1cc(-c2cnn(C3CCNCC3)c2)cnc1N)c1c(Cl)ccc(F)c1Cl [crizotinib]
